From a melting point compilation (Tetko et al.; mined from patent text by program, amines drawn as free bases though some values may be those of a salt)

Row | Structure (SMILES) | melting point
1 | CC(O)c1ccc(-c2ccc(S(C)(=O)=O)cc2)o1 (stereo unspecified) | 118 to 120 °C
2 | Cc1ccc(COc2ncc(F)c(NCO)n2)cc1 | 97 to 98 °C
3 | CCOC(=O)c1c(CCn2cncn2)nc2sc3c(c2c1-c1ccc(OC)c(OC)c1)CCN(C(=O)c1ccc(Cl)cc1)C3 | 195 to 197 °C
4 | CNC(=S)Nc1ncc(Cl)cc1Cl | 105 to 109 °C
5 | O=C1CC(c2ccccc2)(c2ccncc2)Oc2ccccc21 (stereo unspecified) | 123 to 130 °C
6 | Cc1[nH]c(=O)sc1C#N | 180 to 181 °C
7 | CCS(=O)(=O)Oc1cn(C)c2cc(F)ccc2c1=O | 154 to 156 °C
8 | C=Cc1ccc(CNc2ccc(Nc3ccccc3)cc2)cc1 | 143 °C
9 | O=C(O)[C@@H]1O[C@@H]1c1ccccc1 | 81.5 to 83 °C
10 | O=C(O)CCNC(=O)C(=Cc1cc(F)cc(F)c1)CS | 125 °C
11 | COc1ccc(SC#N)c([N+](=O)[O-])c1 | 127 to 128 °C
12 | COc1cc(C(=O)O)ccc1Cc1cn(C)c2ccc(C(=O)NCC3CCCC3)cc12 | 237 to 239 °C
13 | CN1CC(=O)C(C#N)=C1N | 300 °C
14 | Cc1ccccc1C(=O)Nc1ccc(C(=O)N2c3ccccc3CCc3ccccc32)cc1 | 112 to 118 °C
15 | O=C1OCN(C(=O)OCc2ccccc2)[C@H]1CCCl | 75 to 77 °C
16 | Cc1cccc(C)c1NC(=O)CCCc1cccnc1 | 98 to 99 °C
17 | COc1ccc(C(=O)O)cc1C(=O)NCc1ccc(C(F)(F)F)cc1 | 236 °C
18 | CCOC(=O)C1=NNC2C(=O)N(Cc3ccccc3)C(=O)C12 (stereo unspecified) | 100 to 101 °C
19 | O=C(O)c1cc([N+](=O)[O-])ccc1Sc1cccc(Br)c1 | 202 to 206 °C
20 | Cc1cc(C2=NNC(C)Cc3cc4c(cc32)OCO4)ccc1[N+](=O)[O-] (stereo unspecified) | 144 to 147 °C
21 | CC(=O)C(C(=O)NS(=O)(=O)c1ccc(C)cc1)C(=O)c1ccccc1 (stereo unspecified) | 114 to 116 °C
22 | CCOC(=O)C1CCC(C(=O)OCC)N1C(=O)C(N)Cc1c[nH]c2ccccc12 (stereo unspecified) | 144 to 149 °C
23 | CCOc1cc(C)ccc1C1CCN(CCCCNC(=O)c2ccc(C=Cc3ccc(C(F)(F)F)cc3)cc2)CC1 | 210 °C
24 | CCCCC(=O)NC(C(=O)OCC)=C(N)Sc1ccccc1 | 115 °C
25 | N=C(NO)c1cnc(N)nc1 | 218 °C
26 | CN1OCC(=O)N(c2ccc(C(C)(C)C)cc2)C1=S | 168 to 170 °C
27 | CCOC(=O)c1cc2cccc(NS(C)(=O)=O)c2[nH]1 | 157 to 158 °C

Row | Structure (SMILES) | melting point
28 | CCNC(=O)Nc1nc2cc(-c3cccnc3)cc(-c3cccc(OC)n3)c2s1 | 300 °C
29 | COC(=O)CCCC#Cc1cc(Cl)ccc1NS(=O)(=O)c1ccc2nc(NC(C)=O)sc2c1 | 138 to 140 °C
30 | O=S(=O)(NCc1ccc(Cl)cc1)c1c[nH]cn1 | 196 to 198 °C
31 | CC(C)(C)OC(=O)NCCCCCCC(=O)Nc1ccc(-n2nc(C(F)(F)F)cc2C(F)(F)F)cc1 | 86 to 88 °C
32 | CC1(C)OC(c2ccc(S(C)(=O)=O)c(Cl)c2)=C(c2ccccc2)C1=O | 174 to 175 °C
33 | O=c1ccsn1CNc1ccc(Cl)c(Cl)c1 | 120 to 122 °C
34 | CNCc1ccsc1CC(=O)O | 181 to 182 °C
35 | CCOP(=O)(OCC)C(Cc1cc(C)c(O)c(OC)c1)c1cccnc1 (stereo unspecified) | 85 to 87 °C
36 | COC(=O)C1=C(O)c2ccccc2S(=O)(=O)N1C | 163 to 165 °C
37 | O=[N+]([O-])c1cc(Cn2cncn2)ccc1Cl | 98.9 °C
38 | Cc1ccccc1CNC(=S)c1ccc2c(c1)N(C(C)CN1CCCC1)c1ccccc1S2 (racemic) | 110 °C
39 | CCCCCNC(=O)n1cc(F)c(N)nc1=O | 289 to 292 °C
40 | NC(=S)C=Cc1ccc(C(F)(F)F)cc1 | 167 to 170 °C
41 | CCn1cc(C(=O)NCc2ccc(Cl)cc2)c(=O)c2cc(CCl)oc21 | 192 to 193 °C
42 | N#Cc1cccc(OCc2ccccc2)c1N | 102 to 103 °C
43 | CCNC(=O)c1cccc(-c2cccc3cc(Cc4cccc(C(F)(F)F)c4)sc23)c1 | 122 to 123 °C
44 | N=C(NCc1ccccc1)NN=Cc1ccc(Cl)cc1Cl | 139 to 141 °C
45 | CC(=O)c1ccc(C(=O)NCCOc2ccc3ccccc3c2)cc1 | 131 to 132 °C
46 | COC(=O)c1cc(F)ccc1Nc1ccnc2cc(C(F)(F)F)ccc12 | 174 °C
47 | COc1ccc(-c2cnn3ccc(-c4ccc(OCCCNC(=O)OC(C)(C)C)c(OC)c4)nc23)cc1OC | 131 to 133 °C
48 | CCOC(=O)c1cnc2c(F)c(Br)c(F)cc2c1O | 285 °C
49 | COc1ccccc1N(CC(=O)OC(C)(C)C)C(=O)CNC(=O)Nc1cccc(C)c1 | 171 °C
50 | O=C(c1ccccc1)C1CCN(CCN(C(=O)c2ccc([N+](=O)[O-])cc2)c2cccnc2)CC1 | 134 to 136 °C
51 | O=C1CC(c2ccccc2)=Nc2ccccc2N1Cc1ccccc1 | 122 to 123 °C
52 | Cc1ccc(-c2c(-c3ccc(S(N)(=O)=O)cc3)cnn(-c3ccc(F)c(F)c3)c2=O)cc1F | 198 to 200 °C
53 | COC(=O)c1ccccc1-n1c(CCl)nc2c(C)cccc2c1=O | 168 to 169 °C

Now from value to compound:

Row | melting point | Structure (SMILES)
54 | 145 to 146 °C | CC(=O)NCCNC(=O)CCCCC1CCSS1 (stereo unspecified)
55 | 220 to 223 °C | Cc1[nH]cnc1/C=C1\CCc2sc3ccccc3c2C1=O
56 | 110 to 112 °C | C=CC(O)(c1cccnc1)C(O)c1ccccc1Cl (stereo unspecified)
57 | 165 °C | NCCN1CCC(Nc2nc3ccccc3n2Cc2ccc(CO)o2)CC1
58 | 87 to 88 °C | CCOC(=O)[C@H](Cc1ccc(O)cc1)NC(=O)OC(C)(C)C
59 | 218 to 221 °C | NC(=O)c1ccc(F)c2c1CC(NCCCc1c[nH]c3ccc(Cl)cc13)CO2 (stereo unspecified)
60 | > 220 °C | Cc1ccc(Cc2nc3cc(-c4ccc(-c5ccccc5)cc4)c(Cl)cc3[nH]2)cc1P(=O)(O)O
61 | 158 to 159 °C | COc1ccc(CNC(Nc2ccccc2)=C(C#N)C(=O)OC(C)(C)C)cc1
62 | 202 to 205 °C | Cn1cc(-c2ccc(F)cc2)nc1SCCSc1nc(-c2ccc(F)cc2)c(-c2ccc(F)cc2)[nH]1
63 | 238 to 244 °C | CC1(c2ccccc2)C(=O)c2c(cc(O)c(Cl)c2Cl)C1c1ccccc1 (stereo unspecified)
64 | 118 to 125 °C | CC(=NNCCCC(C)C)C(=O)O
65 | 45 to 48 °C | Cc1ccc(-c2nc3ccc(C(C)(C)CN)cc3[nH]2)cc1
66 | 100 °C | CCN(CC)CCC1CCCCN1C(=O)N1c2ccccc2C(=O)Nc2cccnc21 (stereo unspecified)
67 | 72 to 72.5 °C | CC(C)(CCCSCSCCCC(C)(C)C(=O)O)C(=O)O
68 | 136 to 139 °C | CCCc1nc2c(N)nc3cc(OCCNC(=O)OC(C)(C)C)ccc3c2s1
69 | 213 to 214 °C | COc1ccccc1N1CCN(CCc2[nH]c(=O)[nH]c2-c2ccc(F)cc2)CC1
70 | 58 to 60 °C | COC(=O)CCSCCNC(=O)/C=C/C=C/c1ccccc1
71 | 140 to 141 °C | CCOC(=O)c1nc(-c2ccccc2F)c(-c2ccc(=O)n(C(C)C)n2)s1
72 | 168 °C | Cn1nnc2c(N3CCOCC3)nc(Cl)nc21
73 | 70 °C | c1ccc(OCCSCc2nnc(-c3ccc(OCCN4CCCCC4)cc3)o2)cc1
74 | 168 to 169 °C | COc1ccc(C2Sc3cc(Cl)ccc3NC(=O)C2=O)cc1 (stereo unspecified)
75 | 158 to 159 °C | CSCCC(=O)Nc1cc(-c2c(-c3ccc(F)c(C)c3)nc3cccnn23)ccn1
76 | 208 to 210 °C | O=C1[C@@H]2Cc3c([nH]c4ccccc34)[C@H](c3ccc4c(c3)OCO4)N2C(=O)N1Cc1ccccc1 (relative stereo)
77 | 240 to 242 °C | O=[N+]([O-])c1ccc(NN=C(c2ccc(O)cc2O)c2ccc(O)cc2O)c([N+](=O)[O-])c1

Row | melting point | Structure (SMILES)
78 | 181 °C | O=C(CC1COCCO1)NC1CCC(CCN2CCN(c3nccc4c3OCC4)CC2)CC1 (stereo unspecified)
79 | 136 to 138 °C | CCCC(=O)N(C)SN(C(=O)NC(=O)c1c(F)cccc1F)c1ccc(Oc2ccc(C(F)(F)F)cc2Cl)cc1F
80 | 103 to 105 °C | CCOC(=O)CCc1ccc(C2COc3c(C)c(C)c(NC(=O)CC(C)(C)C)c(C)c32)cc1 (stereo unspecified)
81 | 108 to 111 °C | CCOc1nc(CCO)nc(N2CCc3ccccc3CC2)c1C#N
82 | 127 °C | CCOC(=O)N1CCC(Nc2ccc(C(F)(F)F)c([N+](=O)[O-])c2)CC1
83 | 102 to 104 °C | N#Cc1cccc(-c2nc(N)cc3cccnc23)c1
84 | 158 to 160 °C | CCOCc1nc2c(cc(C)n3nnnc23)n1CC(C)C
85 | 124 to 125 °C | CCCN(Cc1ccc(-c2ccccc2-c2nc(=O)s[nH]2)cc1)c1nc2ccccc2cc1C(=O)OCC
86 | 170 °C | COc1ccc2cc(-c3ccc(-n4nc(C)c(C)n4)c(Cl)c3)c(=O)oc2c1
87 | 88 to 89 °C | CC1(C)COC(c2ccc(F)cc2-c2ccc3c(c2)CCC(Cc2ccccc2)C3O)=N1 (stereo unspecified)
88 | 80 to 81 °C | CCCCCCCCCCCCCC(=O)NCCCSc1ccncc1
89 | 147 to 148 °C | O=C(c1ccc(Cl)cc1)c1cccc(Cl)c1[N+](=O)[O-]
90 | 132 to 136 °C | O=C(/C=C/c1ccc(O)cc1Cl)CC(=O)/C=C/c1cc(O)ccc1[N+](=O)[O-]
91 | 278 to 279 °C | CCc1nn(-c2ccc3cc(-c4ccc([N+](=O)[O-])cc4)c(=O)oc3c2)nc1C
92 | 77 to 79 °C | CCOc1cc(C(=O)OC)on1
93 | 226 to 227 °C | O=S1(=O)CCN2CCCC(c3ccc(C(F)(F)F)cc3)C2=N1 (stereo unspecified)
94 | 144 to 145 °C | Cc1ccc(OCC(=O)c2ccc3c(c2)C(C)(C)CCC3(C)C)cc1O
95 | 175 to 177 °C | BrCc1ccc2c(c1)C1(c3ccccc3-2)c2ccccc2-c2ccc(CBr)cc21
96 | 238 to 239 °C | N#Cc1c[nH]nc1-c1ccc([N+](=O)[O-])o1
97 | 64 to 66 °C | CCCc1cn(C(C)(C)C(=O)N(C)C)nc1-c1ccccc1Cl
98 | 189 °C | CC(C)(CN1CCC(CNC(=O)N2C(=O)C3(CCCC3)c3ccccc32)CC1)C(=O)O
99 | 98 to 99 °C | CCOC(C)O[C@H]1C(=O)N[C@H]1C=Cc1ccccc1 (stereo partly specified)
100 | 232 to 235 °C | O=CNC1Cc2cc(Br)cc([N+](=O)[O-])c2NC1=O (stereo unspecified)
101 | 56.9 °C | Oc1ccccc1C=C1c2ccccc2CCc2ccccc21
